Literature values as cited in US20030114415A1, “Compositions and methods for treating and preventing memory impairment using citicoline” (priority 2001, published 2003).
Like-named read-outs stand apart in the source and are kept apart here.

Columns and labels:
[1] = human; 1000 mg citicoline per day
[2] = rat; 500 mg/kg/day citicoline
[3] = test system: stroke and head trauma patients

plasma choline concentration [1]: 1.5 ng/mL
plasma choline concentration [2]: 1.5 ng/mL
absorption when administered orally (oral): absorbed almost completely
Compound: C[N+](C)(C)CCOP(=O)(O)OP(=O)([O-])OC[C@H]1O[C@@H](n2ccc(N)nc2=O)[C@H](O)[C@@H]1O [citicoline, cytidine-5′-diphosphocholine]
bioavailability when administered orally (oral compared with intravenous): approximately the same as when administered intravenously
negative side effects, including dizziness ([3]; patients, 500 mg per day): minimizing any negative side effects
tolerability ([3]; stroke and head trauma patients, 250 mg/day to 1000 mg/day for several weeks): tolerated citicoline well
